# Results reported in patent US6277886A (priority 1996, dated 2001).
# Read-outs that look alike come from different tables or passages of the source.
# How the values were obtained:
# [1] = tested on: male Wistar rats after middle cerebral artery occlusion (MCA-O)
# Description: In order to expose the left middle cerebral artery, a cut was made in the temporal muscle. The tip of the coronoid process of mandible was excised as well and removed with a fine rongeur. Craniectomy was made with a dental drill at the junction between the median wall and the roof of the inferotemporal fossa.
# The dura matter was opened carefully using a 27 gauge needle. […] Following this, the temporalis muscle was sutured and laid over the craniectomy site. The skin was closed with a running 3-0 silk suture. […] The volume of brain tissue incurring damage following ischemia was determined.
# [2] = tested on: reserpine induced ptosis in rats; assay: Reserpine-induced ptosis in rats; assay type: in vivo; conditions: for Mean score of reserpine-induced ptosis: reserpine 5 mg/kg i.p., 0-4 scale, 4 = eyes completely open, saline 0.86
# Description: Reserpine-induced ptosis and its reversal test. Reserpine causes depletion of catecholamine stores, especially norepinephrine. This effect in the live animal is manifested among other things, in ptosis. Drugs that can prevent or inhibit reserpine-induced ptosis act either directly as noradrenergic agonists, or indirectly by decreasing or preventing the metabolic elimination of endogenous norepinephrine. MAO inhibitors belong to the latter category.
# [3] = tested on: pressor response to catecholamines in the cat; assay: Pressor response to catecholamines in the anesthetized cat before and after S(-)PAI; assay type: in vivo; conditions: S(-)PAI 1 mg/kg i.v.
# Experimental: Cats were anesthetized with i.v. nembutal 25 mg/kg. Anesthesia was maintained by additional injections of nembutal, 5 mg/kg, as needed. The femoral artery was cannulated and connected to a Statham pressure transducer for blood pressure recordings on a Grass multichannel Polygraph. The femoral vein was cannulated for i.v. injection of drugs.
# WKY rats = conditions: for Change in HR / Change in MBAP: 45-60 min
# Experimental: (§1) A chronic indwelling catheter was implanted in the caudal artery under light anesthesia with averteen. The animals were allowed to recover and were tested 24 hours after implantation. The cathetar was connected to a Statham pressure transducer and blood pressure was recorded on a Grass multichannel Polygraph. During this period, the rat was kept in its home cage in order to minimize handling and undue manipulations known to affect blood pressure.
# (§2) Two strains of rats were used: WKY rats and matching SHR (Spontaneously Hypertensive Rats) rats. WKY rats were from a local strain, weighing about 250 g each.
# (§3) Blood pressure and heart rate were then monitored for the duration of 45-60 minutes.
# [4] = tested on: SHR (Spontaneously Hypertensive Rats) rats; conditions: for Change in HR / Change in MBAP: 45-60 min
# Experimental: as §1, §2
# SHR rats were purchased from Charles River breeders, England. The animals were allowed to acclimatize and recover from the journey and were used at the age of three months, in order to match their WKY controls. SHR hypertension develops gradually from the age of one month to the age of three months. At this stage, blood pressure is already elevated above normotensive levels.
# as §3
# SHR rats = conditions: for Change in Mean Systolic Blood Pressure / Change in Heart rate: 2 mg/kg p.o. daily
# Experimental: (§4) Spontaneously hypertensive rats, three month-old, were used. […] Controls received an equivalent volume of tap water. Treatment lasted 14 days. During this period, systolic blood pressure was monitored on days 0, 4, 7 and 11, using a tail-cuff procedure. On day 14, systolic blood pressure was determined using the indwelling catheter procedure described in Example 7.
# [5] = for Weight: 2 mg/kg/day oral
# Experimental: as §4
# The rats used in Example 8 above, were additionally monitored for weight gain/loss as an additional marker for the rate of food consumption MAO inhibitors usually elevate central catechoiamines which may depress appetite.
# [6] = tested on: injured mice after closed head injury (CHI); conditions: 1 mg/kg s.c. 15 min after CHI
# Experimental: (§5) The procedure for closed head injury followed was as described for rats in Shohami et al. (J Neurotrauma (1993) 10(2) 109-119) with changes as described.
# (§6) Animals: Male Sabra mice (Hebrew University strain) weighing 34-40 g were used. They were housed in groups of 10 per cage, in a 12 hr:12 hr. light:dark cycle. Food and water were provided ad libitium.
# (§7) Trauma was induced under anaesthesia. A longitudinal incision was performed in the skin covering the skull and the skin retracted to expose the skull. The head was fixed manually at the lower plane of the impact apparatus. A weight of 333 g was delivered by an electric device from a distance of 3 cm to the left hemisphere, 1-2 mm lateral to the midline in the midcoronal plane.
# One point was awarded for the lack of a tested reflex or for the inability to perform the task outline in the Table. The maximal score that can be reached at 1 hour post-CHI is 25 points and at later times, 21 points. The difference in NSS at 1 hr. and at any other time reflects the spontaneous recovery, and is referred to as ΔNSS. A score of 15-19 at 1 hr denotes severe injury, 11-14 denotes moderate injury and less than 10 denotes mild injury.
# mice after CHI = conditions: in words
# Experimental: as §5, §6, §7
# MAO mediated effects = conditions: Examples 4-9; in words
# MAO-A/MAO-B = conditions: in vitro; in words; cited from earlier work
compound,measurement,setting,value
"C#CCN[C@H]1CCc2ccccc21 [S(-)PAI, S-(-)-N-propargyl-1-aminoindan]",neurological severity score (NSS) and infarct volume versus saline-treated rats,[1]; in words,significantly lower
same,Mean NSS ± SEM after 24 hours,"[1]; ip, 2 mg/kg",6.5 ± 0.48
same,Mean score of reserpine-induced ptosis,[2]; 5 mg/kg i.p.,1.8
same,Mean score of reserpine-induced ptosis,[2]; 10 mg/kg i.p.,2.5
same,Mean score of reserpine-induced ptosis,[2]; 20 mg/kg i.p.,1.5
same,endogenous norepinephrine concentrations (inferred from ptosis scores),[2]; in words,does not cause an increase in endogenous norepinephrine concentrations
same,Δ mean arterial pressure after S(-)PAI,[3]; challenge norepinephrine 0.02 μg/kg,12 mmHg
same,Δ mean arterial pressure after S(-)PAI,[3]; challenge norepinephrine 0.05 μg/kg,32 mmHg
same,Δ mean arterial pressure after S(-)PAI,[3]; challenge norepinephrine 0.10 μg/kg,23 mmHg
same,Δ mean arterial pressure after S(-)PAI,[3]; challenge norepinephrine 0.20 μg/kg,46 mmHg
same,Δ mean arterial pressure after S(-)PAI,[3]; challenge phenylephrine 0.20 μg/kg,2 mmHg
same,Δ mean arterial pressure after S(-)PAI,[3]; challenge phenylephrine 0.50 μg/kg,17 mmHg
same,Δ mean arterial pressure after S(-)PAI,[3]; challenge phenylephrine 1.0 μg/kg,17 mmHg
same,Δ mean arterial pressure after S(-)PAI,[3]; challenge phenylephrine 2.0 μg/kg,42 mmHg
same,Δ mean arterial pressure after S(-)PAI,[3]; challenge tyramine 2.0 μg/kg,3 mmHg
same,Δ mean arterial pressure after S(-)PAI,[3]; challenge tyramine 5.0 μg/kg,9 mmHg
same,Δ mean arterial pressure after S(-)PAI,[3]; challenge tyramine 10.0 μg/kg,28 mmHg
same,Δ mean arterial pressure after S(-)PAI,[3]; challenge tyramine 20.0 μg/kg,39 mmHg
same,potentiation of the pressor response,"[3]; phenylephrine, tyramine, norepinephrine, in words",no significant potentiation of the pressor response
same,blood pressure and heart rate,"WKY rats; acute oral, in words",no effect on either parameter in either strain of rats
same,Change in HR,"WKY rats; dose 5, oral",0 beats/min
same,Change in MBAP,"WKY rats; dose 5, oral",0 mmHg
same,Change in HR,"WKY rats; dose 10, oral",0 beats/min
same,Change in MBAP,"WKY rats; dose 10, oral",0 mmHg
same,Change in HR,"WKY rats; dose 20, oral",0 beats/min
same,blood pressure and heart rate,"[4]; acute oral, in words",no effect on either parameter in either strain of rats
same,Change in HR,"[4]; dose 1, oral",-30 beats/min
same,Change in MBAP,"[4]; dose 1, oral",-16 mmHg
same,Change in HR,"[4]; dose 2, oral",0 beats/min
same,Change in MBAP,"[4]; dose 2, oral",-12 mmHg
same,Change in HR,"[4]; dose 10, oral",0 beats/min
same,Change in MBAP,"[4]; dose 10, oral",4 mmHg
same,Change in Mean Systolic Blood Pressure,"SHR rats; day 0, tap water 169.55 ± 7.73",166.88 ± 6.11 mmHg
same,Change in Heart rate,"SHR rats; day 0, tap water 374.09 ± 7.17",404.13 ± 32.86 beats/min
same,Change in Mean Systolic Blood Pressure,"SHR rats; day 4, tap water 177.82 ± 9.08",168.5 ± 12.8 mmHg
same,Change in Heart rate,"SHR rats; day 4, tap water 403 ± 23.3",394.5 ± 37.43 beats/min
same,Change in Mean Systolic Blood Pressure,"SHR rats; day 7, tap water 177.67 ± 10.21",172.13 ± 14.62 mmHg
same,Change in Heart rate,"SHR rats; day 7, tap water 392.67 ± 24.66",394.38 ± 24.47 beats/min
same,Change in Mean Systolic Blood Pressure,"SHR rats; day 11, tap water 178 ± 8.65",167.43 ± 14.23 mmHg
same,Change in Heart rate,"SHR rats; day 11, tap water 371.25 ± 27.22",408 ± 40.04 beats/min
same,intraindividual and interindividual profile of systolic blood pressure and heart rate,"SHR rats; chronic oral 2 mg/kg/day, in words",no effect
same,Weight,"[5]; day 0, tap water 317 ± 32.64",294.13 ± 32.06 g
same,Weight,"[5]; day 7, tap water 302.22 ± 35.17",292.25 ± 28.47 g
same,Weight,"[5]; day 14, tap water 312.89",307.33 ± 24.13 g
same,body weight,"[5]; 2 mg/kg/day, 14 days, in words",no effect on body weight
same,"Δ NSS, 24 hr post-CHI",[6]; saline 4.75 ± 0.17,5.06 ± 0.25
same,"Δ NSS, 7 days post-CHI",[6]; saline 5.83 ± 0.36,7.19 ± 0.28
same,"Δ NSS, 14 days post-CHI",[6]; saline 5.96 ± 0.4,7.88 ± 0.36
same,"latency to find the platform, compared to saline treated controls","mice after CHI; FIG. 1, after CHI",reduction in latency
same,"memory, compared to saline-treated mice",mice after CHI; after CHI,Memory is enhanced
same,effect on several MAO mediated effects,MAO mediated effects,minimal or no effect
same,preference for MAO-B or MAO-A,MAO-A/MAO-B,no preference to either substrate
